Test results as given in US20210094920A1, “NR2B LIGANDS; METHOD OF MAKING; AND USE THEREOF” (THE UNITED STATES OF AMERICA, AS REPRESENTED BY THE …, priority 2018, published 2021).
Like-named read-outs stand apart in the source and are kept apart here.

Columns and labels:
[1] = target: σ1 receptor (Homo sapiens, UniProt Q99720); test: σ1 receptor binding at 10 μM
Protocol: (§1) All derivatives were evaluated for binding to the NR2B site and other neuro-targets. Table 1 provides the structures of the derivatives, molecular weight, calculated Log D values, the structure-activity relationship, and binding data.

[2] = target: NR2B site (Homo sapiens, UniProt Q05586+Q13224); test: binding to the NR2B site (Ki, automatic and manual); conditions: for affinity for NR2B: stated in words
Protocol: as §1

[3] = target: σ2 receptor (Homo sapiens, UniProt Q5BJF2); test: σ2 receptor binding at 10 μM
Protocol: as §1

[4] = target: NR2B subunits in NMDA receptors (Rattus norvegicus, UniProt P35439+Q00960); test: PET imaging of brain in rats (baseline, preblock, displacement); conditions: for effect of pretreatment on brain radioactivity uptake / displacement of radioligand: radioligand [^11C]NR2B-SMe; for displacement of radioligand: given at 15 min after radioligand, over 90 min; for brain radioactivity uptake / washout of brain radioactivity: rats at baseline; for brain radioactivity uptake: i.v. radioligand, at 5 minutes; for washout of brain radioactivity: over 90 minutes
Protocol: Displacement studies where NR2B-SMe or eliprodil was given at 15 min after radioligand were also performed.

[5] = tested on: NR2B subunits in NMDA receptors; test: Brain PET imaging (VT/fP) in monkey (baseline, Co101244 block, self-block); format: in vivo
[6] = tested on: NR2B subunits in NMDA receptors; test: as above; format: in vivo; remark: listed apart in the source
Text: Table 2 provides the normalized total volume of distribution (VT/fP) (ml/cm^3) for whole brain and specific regions of the brain at baseline, Co101244 (1-[2-(4-hydroxyphenoxy)ethyl]-4-[(4-methylphenyl)methyl]-4-piperidinol) block and self-block.

[7] = automatic, read-out: Ki (nM), automatic
[8] = manual, read-out: Ki (nM), manual
[9] = rats, 0.01-3 mg/kg, i.v. at 15 min before radioligand injection

Chain of NR2B subunits in NMDA receptors (Rattus norvegicus, UniProt P35439+Q00960) (Q00960 27-1482, other chains not shown): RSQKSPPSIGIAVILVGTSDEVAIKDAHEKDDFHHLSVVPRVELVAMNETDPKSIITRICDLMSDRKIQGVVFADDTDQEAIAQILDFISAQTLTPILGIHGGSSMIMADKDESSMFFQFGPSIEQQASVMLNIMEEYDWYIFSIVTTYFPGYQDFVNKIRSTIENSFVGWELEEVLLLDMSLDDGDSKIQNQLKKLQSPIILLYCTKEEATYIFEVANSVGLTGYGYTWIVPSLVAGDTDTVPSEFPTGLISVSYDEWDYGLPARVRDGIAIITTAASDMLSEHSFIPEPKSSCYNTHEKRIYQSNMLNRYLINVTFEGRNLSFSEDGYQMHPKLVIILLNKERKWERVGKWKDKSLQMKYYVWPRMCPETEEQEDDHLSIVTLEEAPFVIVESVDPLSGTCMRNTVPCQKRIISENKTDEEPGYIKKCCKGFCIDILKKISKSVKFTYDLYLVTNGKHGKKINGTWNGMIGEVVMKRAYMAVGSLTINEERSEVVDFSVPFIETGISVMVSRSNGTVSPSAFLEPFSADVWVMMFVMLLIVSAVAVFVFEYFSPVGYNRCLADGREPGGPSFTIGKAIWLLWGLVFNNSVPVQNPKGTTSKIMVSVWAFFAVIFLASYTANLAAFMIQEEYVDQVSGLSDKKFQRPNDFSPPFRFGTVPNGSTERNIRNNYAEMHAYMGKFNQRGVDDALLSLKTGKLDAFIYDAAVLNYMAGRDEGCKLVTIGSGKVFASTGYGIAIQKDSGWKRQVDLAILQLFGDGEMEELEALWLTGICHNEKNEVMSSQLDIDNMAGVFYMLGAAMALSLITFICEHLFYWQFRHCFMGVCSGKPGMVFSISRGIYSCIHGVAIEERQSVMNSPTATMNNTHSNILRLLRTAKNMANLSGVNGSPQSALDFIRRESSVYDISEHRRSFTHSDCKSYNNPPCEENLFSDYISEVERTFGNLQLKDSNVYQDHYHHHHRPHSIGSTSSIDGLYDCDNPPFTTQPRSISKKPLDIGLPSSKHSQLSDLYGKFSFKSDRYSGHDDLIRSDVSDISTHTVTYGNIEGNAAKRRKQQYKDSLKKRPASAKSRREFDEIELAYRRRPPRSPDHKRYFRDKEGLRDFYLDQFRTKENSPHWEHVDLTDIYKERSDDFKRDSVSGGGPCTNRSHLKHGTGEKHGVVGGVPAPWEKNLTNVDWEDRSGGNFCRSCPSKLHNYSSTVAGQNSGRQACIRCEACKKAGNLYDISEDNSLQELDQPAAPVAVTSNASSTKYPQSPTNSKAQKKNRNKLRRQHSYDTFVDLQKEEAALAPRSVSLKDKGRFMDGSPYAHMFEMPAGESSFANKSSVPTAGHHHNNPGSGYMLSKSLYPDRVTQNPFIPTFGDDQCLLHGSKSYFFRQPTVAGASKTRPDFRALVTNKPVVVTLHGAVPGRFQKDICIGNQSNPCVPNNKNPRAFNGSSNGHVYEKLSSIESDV
Chain of σ1 receptor (Q99720 whole entry): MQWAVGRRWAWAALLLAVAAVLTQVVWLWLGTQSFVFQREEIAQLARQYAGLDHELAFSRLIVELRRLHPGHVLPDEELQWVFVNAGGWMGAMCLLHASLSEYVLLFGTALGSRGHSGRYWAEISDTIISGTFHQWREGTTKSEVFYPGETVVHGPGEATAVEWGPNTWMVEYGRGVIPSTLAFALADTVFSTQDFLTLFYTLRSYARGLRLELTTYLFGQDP
Chain of NR2B site (Q13224 27-1484, other chains not shown): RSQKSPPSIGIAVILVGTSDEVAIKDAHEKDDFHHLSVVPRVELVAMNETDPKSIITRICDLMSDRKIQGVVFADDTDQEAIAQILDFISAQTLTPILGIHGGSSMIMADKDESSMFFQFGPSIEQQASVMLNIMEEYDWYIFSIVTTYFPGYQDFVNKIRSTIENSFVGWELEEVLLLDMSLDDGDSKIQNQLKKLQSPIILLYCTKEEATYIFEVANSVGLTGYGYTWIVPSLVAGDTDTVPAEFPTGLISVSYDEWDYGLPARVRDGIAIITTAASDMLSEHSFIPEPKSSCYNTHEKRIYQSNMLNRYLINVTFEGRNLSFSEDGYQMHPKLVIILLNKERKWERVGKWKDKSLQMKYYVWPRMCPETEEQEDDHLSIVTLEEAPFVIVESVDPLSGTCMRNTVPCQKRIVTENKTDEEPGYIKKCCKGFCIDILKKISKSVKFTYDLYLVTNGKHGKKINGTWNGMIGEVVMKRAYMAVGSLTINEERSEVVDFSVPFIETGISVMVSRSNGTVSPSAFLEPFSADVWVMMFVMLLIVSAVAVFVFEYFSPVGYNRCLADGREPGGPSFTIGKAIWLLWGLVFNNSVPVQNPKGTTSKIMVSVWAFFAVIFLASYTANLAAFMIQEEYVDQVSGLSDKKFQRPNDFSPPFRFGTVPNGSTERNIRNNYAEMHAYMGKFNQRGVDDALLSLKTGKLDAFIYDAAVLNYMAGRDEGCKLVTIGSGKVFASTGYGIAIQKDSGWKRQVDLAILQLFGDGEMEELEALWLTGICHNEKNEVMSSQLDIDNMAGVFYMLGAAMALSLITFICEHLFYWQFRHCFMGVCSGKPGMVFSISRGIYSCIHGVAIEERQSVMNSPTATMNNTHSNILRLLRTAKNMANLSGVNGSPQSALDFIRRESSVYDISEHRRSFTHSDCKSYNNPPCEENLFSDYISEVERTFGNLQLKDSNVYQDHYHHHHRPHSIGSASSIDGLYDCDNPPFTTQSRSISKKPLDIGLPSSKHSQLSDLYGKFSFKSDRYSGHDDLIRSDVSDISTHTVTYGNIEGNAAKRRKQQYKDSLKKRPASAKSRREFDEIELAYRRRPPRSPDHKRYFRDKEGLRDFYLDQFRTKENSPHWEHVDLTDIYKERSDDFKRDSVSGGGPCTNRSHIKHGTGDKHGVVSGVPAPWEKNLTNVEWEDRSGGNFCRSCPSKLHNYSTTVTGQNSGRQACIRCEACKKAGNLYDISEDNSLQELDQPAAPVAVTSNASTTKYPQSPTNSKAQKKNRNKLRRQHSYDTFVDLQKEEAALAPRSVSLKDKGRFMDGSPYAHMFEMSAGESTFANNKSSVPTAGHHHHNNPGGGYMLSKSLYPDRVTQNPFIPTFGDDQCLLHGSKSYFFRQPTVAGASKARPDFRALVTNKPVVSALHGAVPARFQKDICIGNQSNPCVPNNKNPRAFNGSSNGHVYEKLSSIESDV
Chain of σ2 receptor (Q5BJF2 whole entry, species assumed): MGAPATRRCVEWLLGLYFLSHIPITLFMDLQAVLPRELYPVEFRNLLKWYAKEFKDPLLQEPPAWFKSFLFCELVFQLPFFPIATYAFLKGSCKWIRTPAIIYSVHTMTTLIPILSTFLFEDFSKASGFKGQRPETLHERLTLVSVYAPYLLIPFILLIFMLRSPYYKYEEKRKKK

COc1ccc2c(c1)CCN(CCCCc1ccccc1)CC2O (stereo not drawn) [Compound 1, 7-methoxy-3-(4-phenylbutyl)-2,3,4,5-tetrahydro-1H-benzo[d]azepin-1-ol, reference compound]
inhibition at 10 µM [1]: 89.1% | Ki [2, 7]: 43.5 nM | Ki [2, 8]: 9.8 nM | inhibition at 10 µM [3]: 87.8%

COc1ccc2c(c1)CCN(CCCCc1ccc3ccccc3c1)CC2O (stereo not drawn) [Compound 2]
inhibition at 10 µM [1]: 84.4%

COc1ccc(CCCCN2CCc3cc(OC)ccc3C(O)C2)cc1 (stereo not drawn) [Compound 3]
inhibition at 10 µM [3]: 91.4%

COc1ccc2c(c1)CCN(CCCCc1ccc(C)cc1)CC2O (stereo not drawn) [Compound 4, 7-methoxy-3-(4-(4-methylphenyl)butyl)-2,3,4,5-tetrahydro-1H-benzo[d]azepin-1-ol]
inhibition at 10 µM [1]: 89.7% | Ki [2, 7]: 31.3 nM | Ki [2, 8]: 4.9 nM | affinity for NR2B [2]: in the nM range | inhibition at 10 µM [3]: 90.7%

COc1ccc2c(c1)CCN(CCCCc1ccc(Br)cc1)CC2O (stereo not drawn) [Compound 5]
inhibition at 10 µM [1]: 83.7% | inhibition at 10 µM [3]: 90%

COc1ccc2c(c1)CCN(CCCCc1ccc(F)cc1)CC2O (stereo not drawn) [Compound 6]
inhibition at 10 µM [1]: 57.9% | inhibition at 10 µM [3]: 76.9%

COc1ccc2c(c1)CCN(CCC#Cc1ccccn1)CC2O (stereo not drawn) [Compound 7]
inhibition at 10 µM [1]: 66.4% | inhibition at 10 µM [3]: 74.2%

COc1ccc2c(c1)CCN(CCC#Cc1cccc(F)n1)CC2O (stereo not drawn) [Compound 8]
inhibition at 10 µM [1]: 40.8% | inhibition at 10 µM [3]: 56.4%

COc1ccc2c(c1)CCN(CCCCc1ccc(SC)cc1)CC2O (stereo not drawn) [Compound 9, 7-methoxy-3-(4-(4-(methylthio)phenyl)butyl)-2,3,4,5-tetrahydro-1H-benzo[d]azepin-1-ol]
Ki [2, 7]: 20 nM | affinity for NR2B [2]: in the nM range | effect of pretreatment on brain radioactivity uptake [4, 9]: blocked brain radioactivity uptake in a dose-dependent manner | displacement of radioligand ([4]; rats): only slow and low displacement

OC(CN1CCC(Cc2ccc(F)cc2)CC1)c1ccc(Cl)cc1 (stereo not drawn) [Eliprodil, reference compound]
effect of pretreatment on brain radioactivity uptake ([4]; rats, 3 mg/kg i.v): blocked brain radioactivity uptake to the similar high extent | displacement of radioligand ([4]; rats): failed to displace radioligand

COc1ccc(CCN2CCN(CCCc3ccccc3)CC2)cc1OC [SA 4503, reference compound]
effect of pretreatment on brain radioactivity uptake [4, 9]: blocked brain radioactivity uptake in a dose-dependent manner

COc1ccc2c(c1)CCN(CCCCc1ccc(C)cc1)CC2O (stereo not drawn) [[^11C]NR2B-Me, 7-methoxy-3-(4-(4-methylphenyl)butyl)-2,3,4,5-tetrahydro-1H-benzo[d]azepin-1-ol]
brain radioactivity uptake [4]: 3.0 SUV | washout of brain radioactivity [4]: slow washout

COc1ccc2c(c1)CCN(CCCCc1ccc(C)cc1)C[C@@H]2O [[^11C]NR2B-MeI, (R)(−)7-methoxy-3-(4-(4-methylphenyl)butyl)-2,3,4,5-tetrahydro-1H-benzo[d]azepin-1-ol]
displacement ([4]; PET imaging in rats): 65% | preblocking ([4]; PET imaging in rats): 95% | reversibility of binding ([4]; PET imaging in rats): reversible binding | washout of brain radioactivity [4]: slow washout | brain radioactivity uptake (in words) ([4]; rats, within 5 minutes): very high | time after radioligand injection from which V showed time stability [5]: ≥ 80 min | binding potential of whole brain, BPND ([5]; whole brain, self-block): 4.6 | Normalized Total Volume of Distribution (VT/fp) ([6]; Amygdala, Baseline Ave.): 3171.1 ml/cm^3 | Normalized Total Volume of Distribution (VT/fp) ([6]; Amygdala, Co101244 block): 515.5 ml/cm^3 | Normalized Total Volume of Distribution (VT/fp) ([6]; Amygdala, Self-block): 405.4 ml/cm^3 | Normalized Total Volume of Distribution (VT/fp) ([6]; Cerebellum, Baseline Ave.): 1465.9 ml/cm^3 | Normalized Total Volume of Distribution (VT/fp) ([6]; Cerebellum, Co101244 block): 426.4 ml/cm^3 | Normalized Total Volume of Distribution (VT/fp) ([6]; Cerebellum, Self-block): 348.6 ml/cm^3 | Normalized Total Volume of Distribution (VT/fp) ([6]; Cingulate Cortex, Baseline Ave.): 2388.9 ml/cm^3 | Normalized Total Volume of Distribution (VT/fp) ([6]; Cingulate Cortex, Co101244 block): 523.3 ml/cm^3 | Normalized Total Volume of Distribution (VT/fp) ([6]; Cingulate Cortex, Self-block): 400.0 ml/cm^3 | Normalized Total Volume of Distribution (VT/fp) ([6]; Frontal Cortex, Baseline Ave.): 2254.5 ml/cm^3 | Normalized Total Volume of Distribution (VT/fp) ([6]; Frontal Cortex, Co101244 block): 562.0 ml/cm^3 | Normalized Total Volume of Distribution (VT/fp) ([6]; Frontal Cortex, Self-block): 451.4 ml/cm^3 | Normalized Total Volume of Distribution (VT/fp) ([6]; Hippocampus, Baseline Ave.): 2389.6 ml/cm^3 | Normalized Total Volume of Distribution (VT/fp) ([6]; Hippocampus, Co101244 block): 465.1 ml/cm^3 | Normalized Total Volume of Distribution (VT/fp) ([6]; Hippocampus, Self-block): 370.3 ml/cm^3 | Normalized Total Volume of Distribution (VT/fp) ([6]; Insula, Baseline Ave.): 2314.2 ml/cm^3 | Normalized Total Volume of Distribution (VT/fp) ([6]; Insula, Co101244 block): 542.6 ml/cm^3 | Normalized Total Volume of Distribution (VT/fp) ([6]; Insula, Self-block): 408.1 ml/cm^3 | Normalized Total Volume of Distribution (VT/fp) ([6]; Occipital Lobe, Baseline Ave.): 1676.3 ml/cm^3 | Normalized Total Volume of Distribution (VT/fp) ([6]; Occipital Lobe, Co101244 block): 484.5 ml/cm^3 | Normalized Total Volume of Distribution (VT/fp) ([6]; Occipital Lobe, Self-block): 402.7 ml/cm^3 | Normalized Total Volume of Distribution (VT/fp) ([6]; Parietal Lobe, Baseline Ave.): 2001.4 ml/cm^3 | Normalized Total Volume of Distribution (VT/fp) ([6]; Parietal Lobe, Co101244 block): 538.8 ml/cm^3 | Normalized Total Volume of Distribution (VT/fp) ([6]; Parietal Lobe, Self-block): 440.5 ml/cm^3 | Normalized Total Volume of Distribution (VT/fp) ([6]; Striatum, Baseline Ave.): 1965.2 ml/cm^3 | Normalized Total Volume of Distribution (VT/fp) ([6]; Striatum, Co101244 block): 573.6 ml/cm^3 | Normalized Total Volume of Distribution (VT/fp) ([6]; Striatum, Self-block): 437.8 ml/cm^3 | Normalized Total Volume of Distribution (VT/fp) ([6]; Temporal Lobe, Baseline Ave.): 1956.8 ml/cm^3 | Normalized Total Volume of Distribution (VT/fp) ([6]; Temporal Lobe, Co101244 block): 476.7 ml/cm^3 | Normalized Total Volume of Distribution (VT/fp) ([6]; Temporal Lobe, Self-block): 373.0 ml/cm^3 | Normalized Total Volume of Distribution (VT/fp) ([6]; Thalamus, Baseline Ave.): 2385.1 ml/cm^3 | Normalized Total Volume of Distribution (VT/fp) ([6]; Thalamus, Co101244 block): 596.9 ml/cm^3 | Normalized Total Volume of Distribution (VT/fp) ([6]; Thalamus, Self-block): 445.9 ml/cm^3 | Normalized Total Volume of Distribution (VT/fp) ([6]; Whole Brain, Baseline Ave.): 1959.7 ml/cm^3 | Normalized Total Volume of Distribution (VT/fp) ([6]; Whole Brain, Co101244 block): 511.6 ml/cm^3 | binding potential of whole brain, BPND ([6]; whole brain, Co101244): 3.8 | Normalized Total Volume of Distribution (VT/fp) ([6]; whole brain, self-block): 408.1 ml/cm^3

COc1ccc2c(c1)CCN(CCCCc1ccc(SC)cc1)CC2O (stereo not drawn) [[^11C]NR2B-SMe, [^11C] 7-methoxy-3-(4-(4-(methylthio)phenyl)butyl)-2,3,4,5-tetrahydro-1H-benzo[d]azepin-1-ol]
brain radioactivity uptake [4]: 3.5 SUV | washout of brain radioactivity [4]: very low washout

CC(C(O)c1ccc(O)cc1)N1CCC(Cc2ccccc2)CC1 (stereo not drawn) [ifendopril, reference compound]
effect of pretreatment on brain radioactivity uptake ([4]; rats, 3 mg/kg i.v): blocked brain radioactivity uptake to the similar high extent
